Molecular target: T1, oestrogen receptor (ER) (Homo sapiens, UniProt P03372)
T1 construct: These MVLN cells express, along with the functional oestrogen receptor (ER), a reporter construct; endogenous in cells; host or cells: MVLN cells (MCF7 derivative with ER-responsive luciferase reporter)
T1 sequence (P03372 1-595): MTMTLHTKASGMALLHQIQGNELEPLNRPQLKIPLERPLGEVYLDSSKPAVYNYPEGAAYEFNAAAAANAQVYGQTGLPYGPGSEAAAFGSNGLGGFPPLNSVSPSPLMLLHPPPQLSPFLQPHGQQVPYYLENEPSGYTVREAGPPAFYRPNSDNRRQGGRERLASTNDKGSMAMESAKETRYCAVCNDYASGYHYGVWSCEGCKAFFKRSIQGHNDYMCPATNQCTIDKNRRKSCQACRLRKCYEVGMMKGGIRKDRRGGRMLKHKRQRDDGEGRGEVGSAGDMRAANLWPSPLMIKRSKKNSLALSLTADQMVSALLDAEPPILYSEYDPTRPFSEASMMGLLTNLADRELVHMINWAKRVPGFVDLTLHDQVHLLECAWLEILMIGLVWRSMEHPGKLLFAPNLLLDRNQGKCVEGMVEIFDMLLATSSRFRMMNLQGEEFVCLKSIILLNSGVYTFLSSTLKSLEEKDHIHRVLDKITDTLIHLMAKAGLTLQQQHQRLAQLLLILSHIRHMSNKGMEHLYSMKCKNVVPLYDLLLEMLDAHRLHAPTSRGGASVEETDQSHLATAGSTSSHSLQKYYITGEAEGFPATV
Test: Anti-oestrogenic action in MVLN cells (inhibition of estradiol-induced luciferase, transactivation antagonism)
Assay type: cell-based
Conditions: inhibition of estradiol-induced luciferase activity, read-out: Anti-oestrogenic action in vitro: MVLN transactivation antagonism IC50
Text: The anti-oestrogenic action of the claimed pharmacological compounds was investigated in so-called MVLN cells in vitro. MVLN cells are derivatives of the hormone-responsive MCF7 breast cancer cells known by a person skilled in the art. These MVLN cells express, along with the functional oestrogen receptor (ER), a reporter construct, which under ER-activation expresses luciferase. Determination of the activity of the induced luciferase permits a direct conclusion on the oestrogen properties of substances. To investigate the anti-oestrogenic properties of the pharmacological compounds, they were investigated in the presence of oestrogen for their potential for inhibiting the luciferase signal induced by estradiol.
The claimed pharmacological test substances were investigated in MVLN cells for their anti-oestrogenic potential, as described (see Table 2).

Row | SMILES | IC50 [nM]
1 | [O-][S+](CCCN(CCO)CCCCCCC1=C(c2ccccc2)CCCc2cc(O)ccc21)CCC(F)(F)F (racemic) [Example 78, 9-{6-[(2-Hydroxyethyl){3-[(RS)-(3,3,3-trifluoropropyl)sulphinyl]propyl}amino]hexyl}-8-phenyl-6,7-dihydro-5H-benzo[7]annulen-3-ol] | 11
2 | [O-][S+](CCCN(CCCO)CCCCCCC1=C(c2ccccc2)CCCc2cc(O)ccc21)CCC(F)(F)F (racemic) [Example 80, 9-{6-[(3-Hydroxypropyl){3-[(RS)-(3,3,3-trifluoropropyl)sulphinyl]propyl}amino]hexyl}-8-phenyl-6,7-dihydro-5H-benzo[7]annulen-3-ol] | 9
3 | CC(C)(O)CN(CCCCCCC1=C(c2ccccc2)CCCc2cc(O)ccc21)CCC[S+]([O-])CCC(F)(F)F (racemic) [Example 82, 9-{6-[(2-Hydroxy-2-methylpropyl){3-[(RS)-(3,3,3-trifluoropropyl)sulphinyl]propyl}amino]hexyl}-8-phenyl-6,7-dihydro-5H-benzo[7]annulen-3-ol] | 9
4 | CN(CCCCCC1=C(c2ccccc2)CCCc2cc(O)ccc21)CCCC[S+]([O-])CCCC(F)(F)C(F)(F)F (racemic) [Example 84, 9-[5-(Methyl{4-[(RS)-(4,4,5,5,5-pentafluoropentyl)sulphinyl]butyl}amino)pentyl]-8-phenyl-6,7-dihydro-5H-benzo[7]annulen-3-ol] | 31
5 | CCN(CCCCCCC1=C(c2cccc(O)c2)CCCc2cc(O)ccc21)CCC[S+]([O-])CCCC(F)(F)C(F)(F)F (racemic) [Example 86, 9-[6-(Ethyl{3-[(RS)-(4,4,5,5,5-pentafluoropentyl)sulphinyl]propyl}amino)hexyl]-8-(3-hydroxyphenyl)-6,7-dihydro-5H-benzo[7]annulen-3-ol] | 1
6 | [O-][S+](CCCN(CCO)CCCCCCC1=C(c2cccc(O)c2)CCCc2cc(O)ccc21)CCCC(F)(F)C(F)(F)F (racemic) [Example 87, 9-{6-[(2-Hydroxyethyl){3-[(RS)-(4,4,5,5,5-pentafluoropentyl)sulphinyl]propyl}amino]hexyl}-8-(3-hydroxyphenyl)-6,7-dihydro-5H-benzo[7]annulen-3-ol] | 1
7 | [O-][S+](CCCN(CCCO)CCCCCCC1=C(c2cccc(O)c2)CCCc2cc(O)ccc21)CCCC(F)(F)C(F)(F)F (racemic) [Example 88, 8-(3-Hydroxyphenyl)-9-{6-[(3-hydroxypropyl){3-[(RS)-(4,4,5,5,5-pentafluoropentyl)sulphinyl]propyl}amino]hexyl}-6,7-dihydro-5H-benzo[7]annulen-3-ol] | 1
8 | CC(C)(O)CN(CCCCCCC1=C(c2cccc(O)c2)CCCc2cc(O)ccc21)CCC[S+]([O-])CCCC(F)(F)C(F)(F)F (racemic) [Example 89, 9-{6-[(2-Hydroxy-2-methylpropyl){3-[(RS)-(4,4,5,5,5-pentafluoropentyl)sulphinyl]propyl}amino]hexyl}-8-(3-hydroxyphenyl)-6,7-dihydro-5H-benzo[7]annulen-3-ol] | 2
9 | CCN(CCCCCCC1=C(c2cccc(O)c2)CCCc2cc(O)ccc21)CCC[S+]([O-])CCC(F)(F)F (racemic) [Example 94, 9-[6-(Ethyl{3-[(RS)-(3,3,3-trifluoropropyl)sulphinyl]propyl}amino)hexyl]-8-(3-hydroxyphenyl)-6,7-dihydro-5H-benzo[7]annulen-3-ol] | 9
10 | [O-][S+](CCCN(CCO)CCCCCCC1=C(c2cccc(O)c2)CCCc2cc(O)ccc21)CCC(F)(F)F (racemic) [Example 95, 9-{6-[(2-Hydroxyethyl){3-[(RS)-(3,3,3-trifluoropropyl)sulphinyl]propyl}amino]hexyl}-8-(3-hydroxyphenyl)-6,7-dihydro-5H-benzo[7]annulen-3-ol] | 7
11 | [O-][S+](CCCN(CCCO)CCCCCCC1=C(c2cccc(O)c2)CCCc2cc(O)ccc21)CCC(F)(F)F (racemic) [Example 96, 8-(3-Hydroxyphenyl)-9-{6-[(3-hydroxypropyl){3-[(RS)-(3,3,3-trifluoropropyl)sulphinyl]propyl}amino]hexyl}-6,7-dihydro-5H-benzo[7]annulen-3-ol] | 5
12 | CC(C)(O)CN(CCCCCCC1=C(c2cccc(O)c2)CCCc2cc(O)ccc21)CCC[S+]([O-])CCC(F)(F)F (racemic) [Example 97, 9-{6-[(2-Hydroxy-2-methylpropyl){3-[(RS)-(3,3,3-trifluoropropyl)sulphinyl]propyl}amino]hexyl}-8-(3-hydroxyphenyl)-6,7-dihydro-5H-benzo[7]annulen-3-ol] | 2
13 | CN(CCCCCCC1=C(c2ccccc2)CCCc2c1ccc(O)c2Cl)CCC[S+]([O-])CCCC(F)(F)C(F)(F)F (racemic) [Example 104, 4-Chloro-9-[6-(methyl{3-[(RS)-(4,4,5,5,5-pentafluoropentyl)sulphinyl]propyl}amino)hexyl]-8-phenyl-6,7-dihydro-5H-benzo[7]annulen-3-ol] | 25
14 | COCCCN(CCCCCCC1=C(c2cccc(O)c2)CCCc2cc(O)ccc21)CCC[S+]([O-])CCCC(F)(F)C(F)(F)F (racemic) [Example 108, 8-(3-Hydroxyphenyl)-9-{6-[(3-methoxypropyl){3-[(RS)-(4,4,5,5,5-pentafluoropentyl)sulphinyl]propyl}amino]hexyl}-6,7-dihydro-5H-benzo[7]annulen-3-ol] | 2
15 | CN(CCCCCCC1=C(c2ccc(F)c(O)c2)CCCc2c1ccc(O)c2F)CCCC[S+]([O-])CCC(F)(F)F (racemic) [Example 120, 4-Fluoro-8-(4-fluoro-3-hydroxyphenyl)-9-[6-(methyl{4-[(RS)-(3,3,3-trifluoropropyl)sulphinyl]butyl}amino)hexyl]-6,7-dihydro-5H-benzo[7]annulen-3-ol] | 5
16 | CN(CCCCCCC1=C(c2ccc(F)c(O)c2)CCCc2cc(O)c(F)cc21)CCC[S+]([O-])CCC(F)(F)C(F)(F)F (racemic) [Example 122, 2-Fluoro-8-(4-fluoro-3-hydroxyphenyl)-9-[6-(methyl{3-[(RS)-(3,3,4,4,4-pentafluorobutyl)sulphinyl]propyl}amino)hexyl]-6,7-dihydro-5H-benzo[7]annulen-3-ol] | 6
17 | CN(CCCCCCC1=C(c2ccc(F)c(O)c2)CCCc2cc(O)c(F)cc21)CCCC[S+]([O-])CCCC(F)(F)C(F)(F)F (racemic) [Example 124, 2-Fluoro-8-(4-fluoro-3-hydroxyphenyl)-9-[6-(methyl{4-[(RS)-(4,4,5,5,5-pentafluoropentyl)sulphinyl]butyl}amino)hexyl]-6,7-dihydro-5H-benzo[7]annulen-3-ol] | 6
18 | CN(CCCCCCC1=C(c2ccc(F)c(O)c2)CCCc2cc(O)c(F)cc21)CCC[S+]([O-])CCC(F)(F)F (racemic) [Example 125, 2-Fluoro-8-(4-fluoro-3-hydroxyphenyl)-9-[6-(methyl{3-[(RS)-(3,3,3-trifluoropropyl)sulphinyl]propyl}amino)hexyl]-6,7-dihydro-5H-benzo[7]annulen-3-ol] | 16
19 | CC(C)(O)CN(CCCCCCC1=C(c2ccc(F)c(O)c2)CCCc2cc(O)c(F)cc21)CCC[S+]([O-])CCC(F)(F)F (racemic) [Example 129, 2-Fluoro-8-(4-fluoro-3-hydroxyphenyl)-9-{6-[(2-hydroxy-2-methylpropyl){3-[(RS)-(3,3,3-trifluoropropyl)sulphinyl]propyl}amino]hexyl}-6,7-dihydro-5H-benzo[7]annulen-3-ol] | 4
20 | CN(CCCCCCC1=C(c2ccc(F)c(O)c2)CCCc2cc(O)c(F)cc21)CCC[S+]([O-])CCCC(F)(F)C(F)(F)F (racemic) [Example 130, 2-Fluoro-8-(4-fluoro-3-hydroxyphenyl)-9-[6-(methyl{3-[(RS)-(4,4,5,5,5-pentafluoropentyl)sulphinyl]propyl}amino)hexyl]-6,7-dihydro-5H-benzo[7]annulen-3-ol] | 5
21 | COCCN(CCCCCCC1=C(c2ccc(F)c(O)c2)CCCc2cc(O)c(F)cc21)CCC[S+]([O-])CCCC(F)(F)C(F)(F)F (racemic) [Example 131, 2-Fluoro-8-(4-fluoro-3-hydroxyphenyl)-9-{6-[(2-methoxyethyl){3-[(RS)-(4,4,5,5,5-pentafluoropentyl)sulphinyl]propyl}amino]hexyl}-6,7-dihydro-5H-benzo[7]annulen-3-ol] | 2
22 | COCCCN(CCCCCCC1=C(c2ccc(F)c(O)c2)CCCc2cc(O)c(F)cc21)CCC[S+]([O-])CCCC(F)(F)C(F)(F)F (racemic) [Example 132, 2-Fluoro-8-(4-fluoro-3-hydroxyphenyl)-9-{6-[(3-methoxypropyl){3-[(RS)-(4,4,5,5,5-pentafluoropentyl)sulphinyl]propyl}amino]hexyl}-6,7-dihydro-5H-benzo[7]annulen-3-ol] | 5

Source: patent US20150080438A1, “6,7-Dihydro-5H-benzo[7]annulene derivatives, processes for their preparation, pharmaceutical products comprising them and their use for preparing medicaments” (Bayer Intellectual Property GmbH, priority 2011, published 2015)
